From US7582645B2, “Pyrimidine derivatives for treatment of hyperproliferative disorders” (Bayer Pharmaceuticals Corporation, priority 2003, dated 2009)
Where a name gives a salt, the structure may show the parent alone.

Test system: HCT116 cells
Assay: HCT116 cytotoxic activity assay (Alamar Blue, 72 h)
Format: cell-based
Conditions: Homo sapiens, HCT-116, 72 h compound exposure
Experimental: Representative compounds of this invention were tested for cytotoxicity using the above-described assay procedure with the following results: […]

[1] = greater than 500 nM but less than or equal to 2 μM

For `CCc1cc(Oc2ccc(Nc3cc(-c4ccccc4)nc(N)n3)cc2)ccn1` [Example 1, N^4-{4-[(2-ethylpyridin-4-yl)oxy]phenyl}-6-phenyl-pyrimidine-2,4-diamine], the IC50 (less than or equal to 500 nM) was ≤ 0.5 µM.
For `Cc1cc(Oc2ccc(Nc3cc(-c4ccccc4)nc(N)n3)cc2)ccn1` [Example 2, N^4-{4-[(2-methylpyridin-4-yl)oxy]phenyl}-6-phenylpyrimidine-2,4-diamine], the IC50 (less than or equal to 500 nM) was ≤ 0.5 µM.
In the case of `NC(=O)c1cc(Oc2cccc(Nc3cc(-c4ccccc4)nc(N)n3)c2)ccn1` [Example 3, 4-{3-[(2-amino-6-phenylpyrimidin-4-yl)amino]phenoxy}pyridine-2-carboxamide], the IC50 (less than or equal to 500 nM) is reported as ≤ 0.5 µM.
In the case of `CNC(=O)c1cc(Oc2cccc(Nc3cc(-c4ccccc4)nc(N)n3)c2)ccn1` [Example 4, 4-{3-[(2-amino-6-phenylpyrimidin-4-yl)amino]phenoxy}-N-methylpyridine-2-carboxamide], the IC50 (less than or equal to 500 nM) is reported as ≤ 0.5 µM.
`Nc1nc(Nc2ccc(Oc3c(F)cncc3F)cc2)cc(-c2ccccc2)n1` [Example 5, N^4-{4-[(3,5-difluoropyridin-4-yl)oxy]phenyl}-6-phenylpyrimidine-2,4-diamine] showed an IC50 [1] of 0.5 to 2 µM.
With `N#Cc1cc(Oc2ccc(Nc3cc(-c4ccccc4)nc(N)n3)c(F)c2)ccn1` [Example 6, 4-{4-[(2-amino-6-phenylpyrimidin-4-yl)amino]-3-fluorophenoxy} pyridine-2-carbonitrile hydrochloride] the IC50 (less than or equal to 500 nM) was ≤ 0.5 µM.
For `Cc1cc(Oc2ccc(Nc3cc(-c4ccccc4)nc(N)n3)cc2F)ccn1` [Example 7, N^4-{3-fluoro-4-[(2-methylpyridin-4-yl)oxy]phenyl}-6-phenylpyrimidine-2,4-diamine], the IC50 (less than or equal to 500 nM) was ≤ 0.5 µM.
`N#Cc1cc(Oc2ccc(Nc3cc(-c4ccccc4)nc(N)n3)cc2)ccn1` [Example 8, 4-{4-[(2-amino-6-phenylpyrimidin-4-yl)amino]phenoxy}pyridine-2-carbonitrile] was tested, and the IC50 (less than or equal to 500 nM) was ≤ 0.5 µM.
For `CNC(=O)c1cc(Oc2cccc(Nc3cc(-c4ccoc4)nc(N)n3)c2)ccn1` [Example 9, 4-(3-{[2-amino-6-(3-furyl)pyrimidin-4-yl]amino}phenoxy)-N-methylpyridine-2-carboxamide], the IC50 (less than or equal to 500 nM) was ≤ 0.5 µM.
For `CNC(=O)c1cc(Oc2ccc(Nc3cc(-c4ccoc4)nc(N)n3)cc2)ccn1` [Example 10, 4-(4-{[2-amino-6-(3-furyl)pyrimidin-4-yl]amino}-phenoxy)-N-methylpyridine-2-carboxamide], the IC50 [1] was 0.5 to 2 µM.
In the case of `Nc1nc(Nc2ccc(Oc3ccc([N+](=O)[O-])cc3)cc2)cc(-c2ccccc2)n1` [Example 11, N^4-[4-(4-nitrophenoxy)phenyl]-6-phenylpyrimidine-2,4 diamine], the IC50 (less than or equal to 500 nM) is reported as ≤ 0.5 µM.
Compound `Nc1nc(Nc2ccc(Oc3ccc(Cl)cc3)cc2)cc(-c2ccccc2)n1` [Example 12, N^4-[4-(4-chlorophenoxy)phenyl]-6-phenylpyrimidine-2,4-diamine] has an IC50 [1] of 0.5 to 2 µM.
`COc1ccc(Oc2ccc(Nc3cc(-c4ccccc4)nc(N)n3)cc2)cc1` [Example 13, N^4-[4-(4-methoxyphenoxy)phenyl]-6-phenylpyrimidine-2,4-diamine] was tested, and the IC50 (less than or equal to 500 nM) was ≤ 0.5 µM.
With `COC(=O)c1cc(Oc2ccc(Nc3cc(-c4ccccc4)nc(N)n3)cc2)ccn1` [Example 19, methyl 4-{4-[(2-amino-6-phenylpyrimidin-4-yl)amino]phenoxy}pyridine-2-carboxylate] the IC50 (less than or equal to 500 nM) was ≤ 0.5 µM.
In the case of `Nc1nc(Nc2ccc(Oc3ccnc(C(=O)N4CCOCC4)c3)cc2)cc(-c2ccccc2)n1` [Example 21, N^4-(4-{[2-(morpholin-4-ylcarbonyl)pyridin-4-yl]oxy}phenyl)-6-phenylpyrimidine-2,4-diamine], the IC50 (less than or equal to 500 nM) is reported as ≤ 0.5 µM.
In the case of `COCCNC(=O)c1cc(Oc2ccc(Nc3cc(-c4ccccc4)nc(N)n3)cc2)ccn1` [Example 23, 4-{4-[(2-amino-6-phenylpyrimidin-4-yl)amino]phenoxy}-N-(2-methoxyethyl)pyridine-2-carboxamide], the IC50 [1] is reported as 0.5 to 2 µM.
Compound `CN1CCN(C(=O)c2cc(Oc3ccc(Nc4cc(-c5ccccc5)nc(N)n4)cc3)ccn2)CC1` [Example 26, N4*-[4-({2-[(4-methylpiperazin-1-yl)carbonyl]pyridin-4-yl}oxy)phenyl]-6-phenylpyrimidine-2,4-diamine trifluoroacetate] has an IC50 [1] of 0.5 to 2 µM.
Work on `CCNc1nc(Nc2ccc(Oc3ccnc(C(F)(F)F)c3)cc2)cc(-c2cccc(OC)c2)n1` [Example 30, N^2-ethyl-6-(3-methoxy-phenyl)-N^4-[4-(2-trifluoromethyl-pyridin-4-yloxy)-phenyl]-pyrimidine-2,4-diamine] yielded an IC50 [1] of 0.5 to 2 µM.
`Nc1nc(Nc2ccc(Oc3ccnc(OCCN4CCOCC4)c3)cc2)cc(-c2ccccc2)n1` [Example 32, N^4-{4-[2-(2-morpholin-4-yl-ethoxy)-pyridin-4-yloxy]-phenyl}-6-phenyl-pyrimidine-2,4-diamine] showed an IC50 [1] of 0.5 to 2 µM.
For `Nc1nc(Nc2ccc(Cc3ccnc(C(F)(F)F)c3)cc2)cc(-c2ccccc2)n1` [Example 33, 6-phenyl-N^4-[4-(2-trifluoromethyl-pyridin-4-ylmethyl)-phenyl]-pyrimidin-2,4-diamine], the IC50 (less than or equal to 500 nM) was ≤ 0.5 µM.
With `Nc1nc(Nc2ccc(Cc3ccnc(Cl)c3)cc2)cc(-c2ccccc2)n1` [Example 34, N4*-{4-[(2-chloropyridin-4-yl)methyl]phenyl}-6-phenylpyrimidine-2,4-diamine] the IC50 (less than or equal to 500 nM) was ≤ 0.5 µM.
`N#Cc1cc(Cc2ccc(Nc3cc(-c4ccccc4)nc(N)n3)cc2)ccn1` [Example 35, 4-[4-(2-amino-6-phenyl-pyrimidin-4-ylamino)-benzyl]-pyridine-2-carbonitrile] was tested, and the IC50 (less than or equal to 500 nM) was ≤ 0.5 µM.
With `Nc1nc(Nc2ccc(Oc3ccnc(C(F)(F)F)c3)cc2)cc(-c2ccccc2)n1` [Example 37, 6-phenyl-N^4-(4-{[2-(trifluoromethyl)pyridin-4-yl]oxy}phenyl)pyrimidine-2,4-diamine] the IC50 (less than or equal to 500 nM) was ≤ 0.5 µM.
In the case of `Nc1nc(Nc2ccc(Oc3cc[n+]([O-])c(C(F)(F)F)c3)cc2)cc(-c2ccccc2)n1` [Example 38, N^4-(4-{[1-oxido-2-(trifluoromethyl)pyridin-4-yl]oxy}phenyl)-6-phenylpyrimidine-2,4-diamine], the IC50 (less than or equal to 500 nM) is reported as ≤ 0.5 µM.
`CS(=O)(=O)NCc1cc(Oc2ccc(Nc3cc(-c4ccccc4)nc(N)n3)cc2)ccn1` [Example 40, N-[(4-{4-[(2-amino-6-phenylpyrimidin-4-yl)amino]-phenoxy}pyridin-2-yl)methyl]methanesulfonamide] was tested, and the IC50 (less than or equal to 500 nM) was ≤ 0.5 µM.
`Nc1nc(Nc2ccc(Oc3ccnc(CNC(=O)c4ccc(F)cc4)c3)cc2)cc(-c2ccccc2)n1` [Example 41, N-[(4-{4-[(2-amino-6-phenylpyrimidin-4-yl)amino]phenoxy}pyridin-2-yl)methyl]-4-fluorobenzamide] was tested, and the IC50 [1] was 0.5 to 2 µM.
`CCN(CC)C(=O)NCc1cc(Oc2ccc(Nc3cc(-c4ccccc4)nc(N)n3)cc2)ccn1` [Example 42, N′-[(4-{4-[(2-amino-6-phenylpyrimidin-4-yl)amino]phenoxy}pyridin-2-yl)methyl]-N,N-diethylurea] showed an IC50 [1] of 0.5 to 2 µM.
`COC[C@@H]1CCCN1c1ccnc(Oc2ccc(Nc3cc(-c4ccccc4)nc(N)n3)cc2)c1` [Example 43] was tested, and the IC50 (greater than 2 μM) was > 2 µM.
With `CC(C)NCc1cc(Oc2ccc(Nc3cc(-c4ccccc4)nc(N)n3)cc2)ccn1` [Example 44, N^4-[4-({2-[(isopropylamino)methyl]pyridin-4-yl}oxy)phenyl]-6-phenylpyrimidine-2,4-diamine] the IC50 (greater than 2 μM) was > 2 µM.
`Nc1nc(Nc2ccc(Oc3ccnc(C(=O)NCCO)c3)cc2)cc(-c2ccccc2)n1` [Example 45, 4-[4-(2-Amino-6-phenylpyrimidin-4-ylamino)phenoxy]pyridine-2-carboxylic acid (2-hydroxyethyl)amide] was tested, and the IC50 (less than or equal to 500 nM) was ≤ 0.5 µM.
`Nc1nc(Nc2ccc(Oc3ccnc(-c4nnn[nH]4)c3)cc2)cc(-c2ccccc2)n1` [Example 46, 6-phenyl-N^4-{4-[2-(1H-tetrazol-5-yl)pyridin-4-yloxy]phenyl}pyrimidine-2,4-diamine] was tested, and the IC50 (less than or equal to 500 nM) was ≤ 0.5 µM.
Compound `Nc1nc(Nc2ccc(Oc3ccnc(C4=NCCN4)c3)cc2)cc(-c2ccccc2)n1` [Example 47, N^4-{4-[2-(4,5-Dihydro-1H-imidazol-2-yl)pyridin-4-yloxy]phenyl}-6-phenylpyrimidine-2,4-diamine] has an IC50 [1] of 0.5 to 2 µM.
In the case of `Nc1nc(Nc2ccc(Oc3ccnc(Cl)c3)cc2)cc(-c2ccccc2)n1` [Example 48, N^4-[4-(2-Chloro-pyridin-4-yloxy)-phenyl]-6-phenyl-pyrimidine-2,4 diamine], the IC50 (less than or equal to 500 nM) is reported as ≤ 0.5 µM.
With `COC[C@@H]1CCCN1c1cc(Oc2ccc(Nc3cc(-c4ccccc4)nc(N)n3)cc2)ccn1` [Example 49, (S)—N^4-{4-[2-(2-Methoxymethylpyrrolidin-1-yl)pyridin-4-yloxy]phenyl}-6-phenylpyrimidine-2,4-diamine] the IC50 (less than or equal to 500 nM) was ≤ 0.5 µM.
In the case of `Nc1nc(Nc2ccc(Oc3ccnc(C(F)(F)F)c3)cc2)cc(-c2ccc(NC(=O)[C@@H](N)CO)cc2)n1` [Example 50, 2-amino-N-(4-{2-amino-6-[4-(2-trifluoromethylpyridin-4-yloxy)phenylamino]pyrimidin-4-yl}phenyl)-3-hydroxypropionamide], the IC50 (less than or equal to 500 nM) is reported as ≤ 0.5 µM.
`Nc1nc(Nc2ccc(Oc3ccnc(C(F)(F)F)c3)cc2)cc(-c2ccc(O)cc2)n1` [Example 51, 4-{2-amino-6-[(4-{[2-(trifluoromethyl)pyridin-4-yl]oxy}phenyl)amino]pyrimidin-4-yl}phenol] was tested, and the IC50 (less than or equal to 500 nM) was ≤ 0.5 µM.
For `Nc1nc(Nc2ccc(Oc3ccnc(C(F)(F)F)c3)cc2)cc(-c2ccc(OS(N)(=O)=O)cc2)n1` [Example 52, sulfamic acid, 4-{2-amino-6-[4-(2-trifluoromethylpyridin-4-yloxy)phenylamino]pyrimidin-4-yl}phenyl ester], the IC50 (less than or equal to 500 nM) was ≤ 0.5 µM.
`Nc1cc(Oc2ccc(Nc3cc(-c4ccccc4)nc(N)n3)cc2)ccn1` [Example 53, N^4-[4-(2-aminopyridin-4-yloxy)phenyl]-6-phenylpyrimidine-2,4-diamine] was tested, and the IC50 (less than or equal to 500 nM) was ≤ 0.5 µM.
For `Nc1nc(Nc2ccc(Oc3ccnc(/C=C/CCO)c3)cc2)cc(-c2ccccc2)n1` [Example 58, (3E)-4-(4-{4-[(2-amino-6-phenylpyrimidin-4-yl)amino]phenoxy}pyridin-2-yl)but-3-en-1-ol], the IC50 (less than or equal to 500 nM) was ≤ 0.5 µM.
Compound `CCOC(=O)c1cc(Oc2cncc(Cl)c2)ccc1Nc1cc(-c2ccccc2)nc(N)n1` [Example 60, ethyl 2-[(2-amino-6-phenylpyrimidin-4-yl)amino]-5-[(5-chloropyridin-3-yl)oxy]benzoate] has an IC50 [1] of 0.5 to 2 µM.
